# “And” between values parts separate entries of the source, which are not always exact repeats. Identical values can stand only once.
# System: hyperuricemic subjects with symptomatic gout
# Test: Pilot study of drug 1 versus placebo and open-label allopurinol in hyperuricemic subjects with symptomatic gout (Examples 1, 2, 20)
# Type: in vivo, human
# Procedure: Study Objectives • To compare the proportion of subjects whose sUA level is <6.0 mg/dL following 2 weeks of continuous treatment with drug 1 compared to allopurinol and placebo. • To evaluate the percent reduction from baseline in sUA levels following 2 weeks of continuous treatment with drug 1 in combination with allopurinol. • To evaluate the proportion of subjects whose sUA levels are <6.0 mg/dL, <5.0 mg/dL and <4.0 mg/dL at each visit. • To evaluate the absolute and percent reduction from baseline in sUA levels at each visit. • To evaluate the maximum percent reduction in sUA levels from baseline during the entire treatment period. • To evaluate percent change in 24-hour urine uric acid level from baseline to Day 15. • To evaluate the safety and tolerability of drug 1 in subjects with gout. • To evaluate the pharmacokinetics, safety and tolerability of drug 1 in combination with allopurinol in subjects with gout.
# A randomized, double-blind, placebo-controlled, dose titration, safety and pharmacodynamics pilot study, in approximately 26 hyperuricemic subjects with symptomatic gout enrolled at 2-3 investigational sites in N America, of: • drug 1 versus placebo and open-label allopurinol (Cohort 1); and • drug 1 in combination with allopurinol versus continued allopurinol alone (Cohort 2)
# Subjects are randomized 7 days prior to Day 1 in a double-blind fashion to receive drug 1, drug 1 matching placebo, or open-label allopurinol (Cohort 1) or drug 1 or drug 1 matching placebo in combination with allopurinol (Cohort 2).
# To reduce the incidence of gout flares, colchicine 0.6 mg qd is administered to all subjects starting 14 days prior to the Baseline (Day 1) visit. Subjects continue colchicine administration throughout the Treatment Period, discontinuing at the End of Study visit (one week after the last dose of study medication).
# Cohort 1 approx 20 subjects randomized in 2:1:1 ratio treatment groups—drug 1:placebo:allopurinol.
# Subjects randomized to double-blind treatment: • approx 10 subjects randomized to receive drug 1 200 mg qd (4 drug 1 50 mg capsules/day) for one week, followed by drug 1 400 mg qd (8 drug 1 50 mg capsules/day) for one week. • 5 subjects randomized to receive drug 1 matching placebo qd for 2 weeks (week 1-4 drug 1 matching placebo capsules; week 2-8 drug 1 matching placebo capsules)
# Subjects randomized to open-label treatment: • 5 subjects randomized to receive allopurinol 300 mg tablets qd for 2 weeks Cohort 2 approx 6 subjects randomized in 5:1 ratio treatment groups—drug+allopurinol:placebo+allopurinol
# For Cohorts 1 and 2, subjects randomized to double-blind treatment take drug 1 or drug 1 matching placebo every 24 hours (±1 h) (morning dose) for a period of 2 weeks. For Cohort 1, subjects randomized to open-label treatment take allopurinol every 24 hours (±1 h) (morning dose) for a period of 2 weeks.
# Subjects are requested to then drink approximately 240 mL of water 1-2 hours after dosing.
# 1. Male or post-menopausal or surgically sterile female. 2. 18-75 years of age. 3. Hyperuricemic, defined as: Cohort 1: Screening serum uric acid is ≥8 mg/dL Cohort 2: Screening serum uric acid is ≥10 mg/dL 4. Subject meets one or more of the 1977 American Rheumatism Association (ARA) criteria for the diagnosis of acute arthritis of primary gout. 5. Subject is willing and able to give informed consent and adhere to visit/protocol schedules.
# Blood samples (4.5 mL) are collected and sUA levels determined at Screening (repeated as necessary prior to Day 1), Baseline (Day 1) (1 hour and 8 hours post-dose), Day 8 (trough, 1 hour and 8 hours post-dose), Day 9 (24 hours after Day 8 dose), and Day 14 (trough and 8 hours post-dose), Day 15 and End of Study. An additional sUA level is obtained on Day 7 for Cohort 2 subjects prior to the first dose of allopurinol.
# Primary pharmacodynamics parameter is the proportion of subjects with serum uric acid <6.0 mg/dL following 2 weeks of treatment. […]
# [1] = Cohort 1, preliminary safety summary
structure (smiles),measurement,setting,value
"O=C(O)CSc1nnc(Br)n1-c1ccc(C2CC2)c2ccccc12 [Drug 1, Sodium 2-(5-bromo-4-(4-cyclopropylnaphthalen-1-yl)-4H-1,2,4-triazol-3-ylthio)acetate]",ECG findings including interval measurements,[1],No clinically significant ECG findings
same,"Tolerability (SAEs, deaths, discontinuations due to adverse events)",[1],"well tolerated in this study, with no SAEs, deaths or discontinuations due to adverse events"
same,Responders Day 14 (those with sUA <6 mg/dL),"Cohort 1, Day 14, responders/subjects, drug 1 200 mg qd 1 week then 400 mg qd 1 week, allopurinol 300 mg qd 2 weeks",6/10^2
same,sUA at Day 14 of individual patients not below 6 mg/dL,"Day 14, two non-responders without baseline sUA above 11 mg/dL",6.2 mg/dL and 6.3 mg/dL
same,"Reduction in serum urate levels, on average",after the first week of treatment (200 mg qd),40%
same,"Reduction in sUA, patient with the lowest baseline CrCl",baseline CrCl 53 ml/min,40%
same,"Reduction in sUA, all patients with renal impairment","by the end of week 2, mild to moderate diminished renal function",≥ 30%
same,Plasma levels in gout patients,compared with Phase 1 healthy volunteer studies,generally consistent with those observed in Phase 1 healthy volunteer studies
same,Linear trend of sUA reduction versus creatinine clearance,"day 14, 400 mg qd, Cockcroft-Gault and MDRD methods",increasing benefit with lower CrCL
same,"Increase in serum creatinine (SCr), Grade 1 AE","two patients while on 400 mg QD, SCr fell back to normal limits after study",> 30%
